Columns and labels:
[1] = tested on: Streptomyces chromofuscus; assay: Mineralization of 14C-labeled dyes by shaken cultures; format: cell-based
Experimental: (§1) Agitated cultures containing 100,000 to 150,000 dpm of azo dye at a concentration of 200 mg/liter for P. chrysosporium and 50 mg/liter for S. chromofuscus were incubated at 37° C. for 20 days with shaking at 200 rpm. For each mineralization experiment six replicates-per-culture were run for P. chrysosporium and three replicates-per-culture for S. chromofuscus. Each culture flask contained a CO2 trap consisting of a small glass cup connected to the bottom of the rubber stopper. The cup contained 1 ml of 1N NaOH. Samples were taken every 2 days, and after each sampling cultures were flushed with 100% oxygen for 30 s. At the sampling time, the stopper was removed and the NaOH containing trapped CO2 was transferred to a 20-ml scintillation vial, and the cup was then rinsed twice with 1 ml of water. Two ml of rinse water were also transferred to the vial. Finally, 10 ml of Ecolite scintillation cocktail (ICN Biochemicals Inc., Irvine, Calif.) were added to each vial. Vials, after mixing, were stored in the dark for 24 h. The cpm of trapped radioactivity was then determined in a Packard Tri-Carb liquid scintillation analyzer, Model 1500, using the ^14 C quench standards and SIS numbers.
(§2) The removal of radioactivity from the media was determined by measuring the amount of ^14 C label in 0.1 ml of the medium at time 0 and 21 days for each culture. Uninoculated cultures were used as evaporation controls. […] At the end of each mineralization experiment, culture broths were acidified with 5 ml of 1M H3 PO4, fresh 1N NaOH was added to the trap, and the cultures were shaken overnight. No additional releases of ^14 CO2 were observed. The radioactivity assimilated by the cells was measured by solubilizing biomass harvested from each 21-day-old culture in an equal volume of hyamine hydroxide solution. Before solubilization, cells were washed three times with 50 ml of distilled water to remove adsorbed dyes. Ecolite 10 ml was added to the mixture, which was vortexed vigorously. To increase counting efficiency, the solution of biomass-hyamine-scintillation cocktail was further diluted 10 to 20 times with fresh Ecolite before counting.

P. chrysosporium = assay: as above; format: cell-based, Phanerochaete chrysosporium
Experimental: as §1
Either a charcoal-containing polyurethane sponge (Bio-Rad Laboratories, Richmond, Calif.) or 2-methoxyethanol was used to trap volatile organic compounds released during mineralization experiments. The sponge (1 cm^3) replaced the 1N NaOH solution in the small glass cap attached to the rubber stopper; other conditions were as before for the ^14 CO2 experiments. For scintillation counting, the charcoal sponges were dissolved in 1 ml of hyamine hydroxide contained in scintillation vials (1M solution in methanol; NEN Research Products, Boston, Mass.) held at 55° C. for 2 h. Ten ml of Ecolite scintillation cocktail were then added and the cpm was measured.
In the second procedure, cultures with CO2 traps were flushed with oxygen for 10 min, and the organic volatiles present were trapped in 10 ml of 2-methoxyethanol mixed with 10 ml Ecolite.
as §2

[2] = tested on: S. chromofuscus A11 extracellular peroxidase; assay: Oxidation of azo dyes by S. chromofuscus A11 crude enzyme preparation; format: biochemical, Streptomyces chromofuscus A11; conditions: pH 8, 37° C., H2O2
Experimental: Environ. Microbiol., 1988, 54:3057-3063. […] Microbiol. Biotechnol., 34:661-667. Incubation took place at 37° C. with shaking at 250 rpm. The culture supernatant was collected after 48 h incubation, and vacuum-filtered through Whatman no. 1 filter paper. The filtrate was concentrated approximately 40- to 50-fold by ultrafiltration through an Amicon ultrafiltration stirred cell (series no. 8000, Amicon Corp.) with a disc PM-10 filter (diameter, 76 mm). Protein in the concentrated filtrate was then precipitated from solution with 80% ammonium sulfate. The precipitate was collected by centrifugation (15 min, 10,000 rpm). The pellet was resuspended in 10 ml of 20 mM HEPES buffer (pH 8) and dialyzed overnight against the same buffer at 4° C. These preparations were then stored in 1-ml aliquots at -20° C. until used. Before using, the preparation was filtered through a NAP-25 Sephadex G-25 disposable column (Pharmacia) in order to separate a yellowish protein fraction from a pink low-molecular-weight fraction. The yellowish fraction was used as the source of enzyme. […] The reaction was started with the addition of 100 μl of 50 mM H2 O2 and was followed for 1 min at 37° C. Controls were run with no addition of H2 O2 or with the addition of the hemeperoxidase inhibitor KCN (final concentration 25 μM).

ligninase = assay: Oxidation of dyes by P. chrysosporium ligninase (crude preparation); format: biochemical, Phanerochaete chrysosporium; conditions: for Oxidation rate of azo dyes, P. chrysosporium Ligninase: crude enzyme, conditions specific for ligninase
Experimental: The peroxidase assay was carried out using a composition having a final volume of 1.0 ml. The reaction mixture contained 250 μl of 100 mM HEPES buffer (pH 8), 500 μl of 10 mM 2,4-dichlorophenol, 100 μl of 1 mM aminoantipyrine, 50 μl enzyme preparation and 100 μl 50 mM H2 O2. The reaction was initiated by the addition of hydrogen peroxide at 37° C. One unit of peroxidase activity was expressed as the amount of enzyme required for an increase of one absorbance-unit-per-minute at 510 nm. Assays of manganese peroxidase and of ligninase from P. chrysosporium were carried out as previously described by Paszczynski et al in "Manganese peroxidase of Phanerochaete chrysosporium: Purification," Methods Enzymol. 161:264-270, incorporated herein by reference. […] Biophys., 1986, 44:750-765. Preparation and assay of ligninase and manganese peroxidase from these P. chrysosporium cultures were carried out as previously reported by Paszczynski, et al., Methods Enzymol., 1988, 161:264-270. […] Purification," Methods Enzymol. 161:264-270. […] Cycle time was 30 seconds with the last measure after 15 minutes. […] The reaction conditions were the same as for acid yellow 9. No decolorization of the synthesized dyes by ligninase was detected.

S. diastaticus A13 = format: cell-based; conditions: streptomyces diastaticus a13 culture, 336 h
Source text: (§3) Microbiol., 1984, 130:2905-2913.
(§4) Replicate sterile controls also were run in each experiment.

S. rochei A10 = format: cell-based; conditions: streptomyces rochei a10 culture, 336 h
Source text: as §3, §4

S. diastaticus A12 = format: cell-based; conditions: streptomyces diastaticus a12 culture, 336 h
Source text: as §3, §4

S. chromofuscus A11 = conditions: for Degradation (%) after Streptomyces cultivation, strain A11: streptomyces chromofuscus a11 culture, 336 h
Experimental: as §3, §4
The Streptomyces were grown on the same media and under the same conditions as previously described. […] Thus, the spectrophotometric assays for substrates 1-12 were carried out at their specific isobastic points. Degradation was calculated as percent of substrates removed from culture broth, considering the evaporation factor (around 10%).

Mn(II)-peroxidase = assay: Oxidation of dyes by P. chrysosporium Mn(II)-peroxidase; format: biochemical, Phanerochaete chrysosporium; conditions: crude enzyme, conditions specific for Mn(II)-peroxidase
Experimental: The peroxidase assay was carried out using a composition having a final volume of 1.0 ml. The reaction mixture contained 250 μl of 100 mM HEPES buffer (pH 8), 500 μl of 10 mM 2,4-dichlorophenol, 100 μl of 1 mM aminoantipyrine, 50 μl enzyme preparation and 100 μl 50 mM H2 O2. The reaction was initiated by the addition of hydrogen peroxide at 37° C. One unit of peroxidase activity was expressed as the amount of enzyme required for an increase of one absorbance-unit-per-minute at 510 nm. Assays of manganese peroxidase and of ligninase from P. chrysosporium were carried out as previously described by Paszczynski et al in "Manganese peroxidase of Phanerochaete chrysosporium: Purification," Methods Enzymol. 161:264-270, incorporated herein by reference. […] Biophys., 1986, 44:750-765. Preparation and assay of ligninase and manganese peroxidase from these P. chrysosporium cultures were carried out as previously reported by Paszczynski, et al., Methods Enzymol., 1988, 161:264-270. […] Purification," Methods Enzymol. 161:264-270. […] Cycle time was 10 seconds, with the last measure after three minutes of incubation.

[3] = tested on: Phanerochaete chrysosporium; assay: Substrate removal / decolorization by P. chrysosporium culture; format: cell-based; conditions: for % Decolorization, P. chrysosporium: 14 days
Experimental: Environ. Microbiol., 1981, 42:290-296), with the addition of 75 mg adenine (6-aminopurine) and 27 mg L-phenylalanine-per-liter. This addition accelerated the growth of the fungus without inhibiting ligninase activity. […] […] Cultures were incubated at 37° C. for 7 to 15 days with shaking (250 rpm). Solid agar media were also employed.

[4] = molecular target: T1, horseradish peroxidase type II (Armoracia rusticana, UniProt P00433); assay: Oxidation of azo dyes by horseradish peroxidase preparation; format: biochemical; conditions: pH 8, 37° C., H2O2
T1 sequence (P00433 31-338): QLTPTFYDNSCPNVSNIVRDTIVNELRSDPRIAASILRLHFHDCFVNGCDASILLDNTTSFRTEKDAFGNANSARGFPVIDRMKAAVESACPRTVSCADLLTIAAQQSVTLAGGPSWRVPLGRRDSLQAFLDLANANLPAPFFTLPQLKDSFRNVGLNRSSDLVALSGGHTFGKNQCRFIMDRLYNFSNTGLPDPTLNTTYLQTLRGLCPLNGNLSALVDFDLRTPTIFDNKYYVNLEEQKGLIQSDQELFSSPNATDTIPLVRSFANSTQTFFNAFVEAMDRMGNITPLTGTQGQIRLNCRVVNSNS
Experimental: The reaction was started with the addition of 100 μl of 50 mM H2 O2 and was followed for 1 min at 37° C. Controls were run with no addition of H2 O2 or with the addition of the hemeperoxidase inhibitor KCN (final concentration 25 μM).

[5] = beginning concentration 100 ppm
[6] = beginning concentration 150 ppm
[7] = beginning concentration 200 ppm
[8] = beginning concentration 300 ppm

Compound | Oxidation rate of azo dyes, S. chromofuscus peroxidase [2] [μmoles per minute per ml] | Oxidation rate of azo dyes, P. chrysosporium Ligninase (ligninase) [μmoles per minute per ml] | Degradation (%) after Streptomyces cultivation, strain A10 (S. rochei A10) [%] | Degradation (%) after Streptomyces cultivation, strain A11 (S. chromofuscus A11) [%] | Oxidation rate of azo dyes, P. chrysosporium Mn-peroxidase (Mn(II)-peroxidase) [μmoles per minute per ml] | Concentration of substrate after ten days cultivation with P. chrysosporium [3, 5] [ppm] | Concentration of substrate after ten days cultivation with P. chrysosporium [3, 6] [ppm] | Concentration of substrate after ten days cultivation with P. chrysosporium [3, 7] [ppm] | Concentration of substrate after ten days cultivation with P. chrysosporium [3, 8] [ppm] | % Decolorization, P. chrysosporium ([3]; initial concn 150 ppm) [%] | % Decolorization, P. chrysosporium ([3]; initial concn 300 ppm) [%] | Oxidation rate of azo dyes, Horseradish peroxidase [4] [μmoles per minute per ml] | other results
O=S(=O)(O)c1ccc(N=Nc2ccc(O)c3ccccc23)cc1 [Azo dye 32, 4-(4-hydroxy-naphthylazo)-benzenesulfonic acid] |  |  |  |  |  |  |  |  |  |  |  |  | Percentage of radioactivity recovered in CO2, Streptomyces chromofuscus ([1]; 21 days' growth, 50 mg/liter): 1.1%; Percentage of radioactivity recovered in biomass (cells), Streptomyces chromofuscus ([1]; 21 days' growth, 50 mg/liter): 7.0%; Percentage of radioactivity removed from the medium, Streptomyces chromofuscus ([1]; 21 days' growth, 50 mg/liter): 22.0%; Percentage of radioactivity recovered in CO2, P. chrysosporium (P. chrysosporium; 21 days' growth, 200 mg/liter): 19.7%; Percentage of radioactivity recovered in biomass (cells), P. chrysosporium (P. chrysosporium; 21 days' growth, 200 mg/liter): 4.0%; Percentage of radioactivity removed from the medium, P. chrysosporium (P. chrysosporium; 21 days' growth, 200 mg/liter): 29.6%
COc1cc(N=Nc2ccc(S(=O)(=O)O)cc2)ccc1O [compound 2] | 3.68 | 0.72 | 77 | 73 | 8.19 | 2.493 | 6.350 | 10.068 | 7.318 | 97 | 94 | 18.19 | Oxidation / decolorization by ligninase (ligninase; pH3, 0.2 mM hydrogen peroxide, 15-minute incubation): not detected; Degradation (%) after Streptomyces cultivation, strain A13 (S. diastaticus A13): 18%; Degradation (%) after Streptomyces cultivation, strain A12 (S. diastaticus A12): 43%; Degradation by Phanerochaete fungus ([3]; growth period of seven days, starting dye 150-200 ppm (FIG. 3), 10080 min): 90%
COc1cc(C)cc(N=Nc2ccc(S(=O)(=O)O)cc2)c1O [compound 11] | 0.33 | 1.28 | 4 | 9 | 1.06 | 6.795 | 14.416 | 30.075 | 21.765 | 70 | 34 | 0.15 | 
O=S(=O)(O)c1ccc(N=Nc2ccc(O)c3ccccc23)cc1 [compound 32] | 2.62 | 0.23 |  |  | 4.62 |  |  |  |  |  |  | 3.91 | Decolorization of growth medium by S. chromofuscus A11 (S. chromofuscus A11; both 50 and 100 ppm): significantly decolorized
COc1cc(N=Nc2ccc(N=N[14c]3[14cH][14cH][14c](S(=O)(=O)O)[14cH][14cH]3)cc2S(=O)(=O)O)ccc1O [compound 35] |  |  |  |  |  |  |  |  |  |  |  |  | Mineralization by the streptomycetes ([1]; 21-day incubation): mineralized
O=S(=O)(O)[14c]1[14cH][14cH][14c](N=Nc2c(O)ccc3ccccc23)[14cH][14cH]1 [compound 36] |  |  |  |  |  |  |  |  |  |  |  |  | Degradation began earlier than dye 37 (P. chrysosporium; P. chrysosporium): 2 days; Degradation relative to dye 37 (P. chrysosporium; P. chrysosporium, 21-day incubation): 2.5 times
